For experiment [1], the system named is claudin-1, occludin, and tight junction protein 1. Nature of the experiment: Gene expression of other cell-cell adhesion molecules in vaginal tissue. The format is in vivo, mice.
For experiment [2], the system named is vaginal microbiota / pro-inflammatory mediators. The experiment in a line: Bacteria and inflammation in genital mucosa. The format is in vivo, mice. The source says:
While prior clinical studies identified increased inflammation in the genital tracts of women using DMPA, the underlying mechanism for this effect had been undefined. Because DMPA increased genital mucosal permeability, it was posited DMPA increases inflammation by promoting entry of the vaginal microbiota into mucosal tissue.

The subject of experiment [3] is genital mucosal barrier. Nature of the experiment: Murine tissue permeability assay, low molecular weight fluorescent molecules given intravaginally. Format: in vivo, mice. As to the method:
Effects of progestins on genital mucosal barrier permeability were evaluated by intravaginally (ivag) administering 457 Da and 70 KDa-sized fluorescent molecules to mice in estrus or diestrus-stage or after DMPA or LNG treatment. Mice were grouped as follows: untreated in estrus, untreated in diestrus, DMPA treated, or LNG treated. The mice were intravaginally administered a PBS solution containing Lucifer yellow (457 Da) and Texas-Red-conjugated dextran (70 KDa). Animals were euthanized 45 minutes later to assess vaginal tissue penetration of these molecules by confocal microscopy. […] Mucosal permeability was increased moderately by diestrus, but dramatically by DMPA or LNG. Conversely, permeability increases were negligible in estrus-stage mice and mice treated with MePRDL or DMPA and RU486. This indicates exogenous progestins increase genital mucosal permeability.
To evaluate mucosal permeability to low molecular weight molecules, indicated groups of mice were sedated, and 10 μL of a PBS solution containing 62.5 μg of dextran Texas-Red® (DR) (MW=70,000 Da) and 50 μg of Lucifer yellow CH, lithium salt (LY) (MW=457.2 Da) (both from Life Technologies) administered intravaginally. 45 minutes later, mice were euthanized, and excised vaginal tissue fixed in formaldehyde. Fixed tissue was embedded in agarose, and 200-300 μm specimens were sectioned with a vibratome. After counterstaining with 4,6-diamidino-2-phenylindole (DAPI), confocal microscopy images were acquired by sequential scanning to prevent fluorescence crossover.

The subject of another experiment is desmoglein-1a (DSG1a). Nature of the experiment: qRT-PCR of Dsg1a gene expression in vaginal tissue. The format is in vivo, mice. The settings on record: progestin-treated mice vs mice in estrus. As to the method: To define progestin-mediated changes in mucosal permeability, vaginal tissue from mice in estrus, diestrus, or after DMPA or LNG treatment was used to measure expression of the desmosomal cadherins desmoglein-1a (DSG1a) and desmocollin-1 (DSC1).
(§1) Human ectocervical and murine vaginal tissues were immediately immersed in 1 mL of RNAlater® (Qiagen), stored for 24 h at 4° C., and stored long-term at −80° C. RNA isolated using the RNeasy Lipid Tissue Kit (Qiagen) using manufacturer's instructions was re-suspended in nuclease-free water and quantified using a NanoDrop spectrophotometer (Thermo Scientific). The following mouse primers were utilized: desmocollin 1 (Mm00496525_ml), desmoglein-1α (Mm00809994_s1), ephrinA3 (Mm01212723_g1) and pyruvate carboxylase (Mm00500992_ml) as housekeeping reference gene (all from Thermo Scientific). These human primers were used: desmoglein-1 (Hs00355084_m1) and glucose-6-phosphate isomerase (Hs00976711_m1) as a housekeeping reference gene. To define relative gene expression, 100 ng of RNA was mixed with TaqMan® RNA-to-Ct™ 1-Step Kit and adequate primer (final volume of 10 μL/well) using manufacturer's instructions (Life Technologies). qRT-PCR was performed using a Quantstudio3 Thermal Cycler, and data analyzed via Quanstudio Software (Applied Biosystems).

Experiment [4] concerns upstream regulators EFNA3 and ROCK2. The experiment in a line: Genome-wide gene expression and pathway analysis of vaginal tissue. Format: in vivo. Conditions: DMPA-treated vs estrus-stage mice. As to the method:
The above results established changes that occur in genital mucosa of women initiating DMPA are recapitulated in DMPA-treated mice, and these that changes include lower expression of the cell-cell adhesion molecule DSG1 and increased genital mucosal permeability. To investigate mechanisms for DMPA-mediated downregulation of DSG1, genome-wide gene expression studies were performed with vaginal tissue from estrus-stage mice (i.e., mice resistant to genital HSV infection) and DMPA-treated mice (i.e., mice highly susceptible to this virus). […] EFNA molecules are involved in pathways that induce DSG1 expression and regulate epithelial cell responses and formation of intercellular adhesion complexes, and Eph receptors stimulate ROCK2-mediated actinomyosin contractility that increases keratinocyte differentiation via DSG1 upregulation. These gene expression analyses thus identified a potential mechanism by which progestins alter E-regulated expression of EFNA3 and ROCK2 and levels of DSG1. As EFNA3, DSG1, and ROCK2 are basally expressed in human genital epithelium, capacity of this E-regulated pathway to promote genital mucosal integrity in mice may also extend to results seen in the human female genital tract.

A further experiment concerns markers of inflammation. Nature of the experiment: Expression of markers of inflammation in ectocervical biopsies from women. Format: in vivo. Conditions: 1 month after initiating DMPA vs no hormonal contraceptive.
The next experiment concerns DSG1 protein. The experiment in a line: DSG1 protein levels in vaginal tissue, immunofluorescent staining and confocal microscopy. The format is in vivo, mice. Conditions: progestin-treated mice vs mice in estrus. As to the method: Excised mouse vaginas were formaldehyde fixed and paraffin embedded (FFPE), and 10 μm sections mounted on glass slides and de-paraffinized by sequential immersion in 100% xylene, 100% ethanol, 96% ethanol, and sterile DEPC-treated water. Antigen retrieval was performed using 10 mM sodium citrate buffer (pH 6.0) containing 0.05% Tween 20 (both Sigma-Aldrich) (20 minutes at 95° C.). After 3 PBS washes, sections were incubated overnight in 10% normal goat serum (Abcam, Cambridge Mass.) at 4° C., then incubated for 1 h at ambient temperate with rabbit anti-desmoglein-1 (clone EPR6766(B)) antibody, washed and incubated for 1 h with AlexaFluor® 488-labeled goat anti-rabbit IgG (antibodies from Abcam) (all antibodies were diluted in PBS with 1% BSA and 0.05% Tween 20). Sections were stained with DAPI and evaluated for levels of DSG1 protein (defined by calculating pixel numbers per 100 μm^2) using confocal microscopy and ImageJ software.

A further experiment concerns DSG1. Nature of the experiment: DSG1 gene expression in ectocervical biopsies from women. Conditions: 1 month after initiating DMPA vs no hormonal contraceptive. Format: in vivo.
Description: FIG. 3 is a graph showing the effect of DMPA on ectocervical DSG1 gene expression in women. Ectocervical biopsy tissue collected from the same women; before they started (No HC) and 1 month after they initiated DMPA.
To confirm the relevance of the mouse model findings, DMPA-mediated changes in mucosal permeability was explored with ectocervical biopsies from women using no hormonal contraceptive and again 1 month after they initiated DMPA.
as §1, with “These human primers were used: desmoglein-1 (Hs00355084_m1) and glucose-6-phosphate isomerase (Hs00976711_m1) as a housekeeping reference gene.” left out

For experiment [5], the system named is genital mucosal barrier. The experiment in a line: Murine tissue permeability assay, low molecular weight fluorescent molecules given intravaginally. The format is in vivo, mice. The settings on record: germ-free mice.
[6] abbreviates: DMPA-treated vs. estrus-stage mice.

The source of these data is US20220362330A1, “Compositions and Methods for Increasing Epithelial Barrier Function” (The Board of Trustees of the Leland Stanford Junior …, priority 2019, published 2022).

Take `CC(=O)O[C@]1(C(C)=O)CC[C@H]2[C@@H]3C[C@H](C)C4=CC(=O)CC[C@]4(C)[C@H]3CC[C@@]21C` [DMPA]: in experiment [1], the “gene expression of claudin-1, occludin, and tight junction protein 1” value is “did not alter”. In addition, in experiment [2] (setting [6]), the “Gram-negative bacteria in the mucosa” value was “more Gram-negative bacteria” and the “levels of pro-inflammatory mediators in the mucosa” value is listed as “higher levels of pro-inflammatory mediators”. The inflammation entry in [2] (germ-free mice) is on record as “not inflammation”. Moreover, in the experiment on genital mucosal barrier [3] (confocal images, 45 minutes after ivag administration), the “penetration of the 457 Da molecules into vaginal tissue” value was “greatest penetration”. Besides, the Mucosal permeability increase entry with genital mucosal barrier [3] (mice, ivag Lucifer yellow (457 Da) and Texas-Red dextran (70 KDa), 45 minutes, confocal microscopy) is recorded as “dramatically”. Besides, the “DSG1a gene expression in vaginal tissue” value in the experiment with desmoglein-1a (DSG1a) is reported as “decrease gene expression levels”. In addition, the “effect on signaling pathways (pathway analysis)” value in experiment [4] is “inhibition of signaling pathways that involve ephrin-A3 (EFNA3) and ROCK2”. The “Expr Log Ratio” value in [4] (upstream regulator EFNA3) is reported as −2.593. Further, in the experiment on markers of inflammation, the “expression of markers of inflammation in ectocervical tissue” value is recorded as “significantly higher”. Moreover, in the experiment on DSG1 protein, the “DSG1a protein expression in vaginal tissue” value is listed as “significantly reduced”. Further, the “DSG1 expression in ectocervical tissue” value in the experiment with DSG1 is given as “significantly lower”. Moreover, in the experiment on genital mucosal barrier [5], the permeability entry is on record as “increased permeability”.
